Results: paper PMC4771985, “Angiotensin I Converting Enzyme Inhibitory Peptides Derived from Phycobiliproteins of Dulse Palmaria palmata” (Marine Drugs, 2016)
Ends that are not written are not given here. Peptide text beside a SMILES is read from it.

Target: T1, ACE from rabbit lung (Oryctolagus cuniculus, UniProt P12822)
T1 construct: ACE from rabbit lung was purchased from Sigma Chemical Co; purchased Sigma Chemical Co. (St. Louis, MO, USA); host or cells: rabbit lung (tissue-derived)
T1 sequence (P12822 34-1310): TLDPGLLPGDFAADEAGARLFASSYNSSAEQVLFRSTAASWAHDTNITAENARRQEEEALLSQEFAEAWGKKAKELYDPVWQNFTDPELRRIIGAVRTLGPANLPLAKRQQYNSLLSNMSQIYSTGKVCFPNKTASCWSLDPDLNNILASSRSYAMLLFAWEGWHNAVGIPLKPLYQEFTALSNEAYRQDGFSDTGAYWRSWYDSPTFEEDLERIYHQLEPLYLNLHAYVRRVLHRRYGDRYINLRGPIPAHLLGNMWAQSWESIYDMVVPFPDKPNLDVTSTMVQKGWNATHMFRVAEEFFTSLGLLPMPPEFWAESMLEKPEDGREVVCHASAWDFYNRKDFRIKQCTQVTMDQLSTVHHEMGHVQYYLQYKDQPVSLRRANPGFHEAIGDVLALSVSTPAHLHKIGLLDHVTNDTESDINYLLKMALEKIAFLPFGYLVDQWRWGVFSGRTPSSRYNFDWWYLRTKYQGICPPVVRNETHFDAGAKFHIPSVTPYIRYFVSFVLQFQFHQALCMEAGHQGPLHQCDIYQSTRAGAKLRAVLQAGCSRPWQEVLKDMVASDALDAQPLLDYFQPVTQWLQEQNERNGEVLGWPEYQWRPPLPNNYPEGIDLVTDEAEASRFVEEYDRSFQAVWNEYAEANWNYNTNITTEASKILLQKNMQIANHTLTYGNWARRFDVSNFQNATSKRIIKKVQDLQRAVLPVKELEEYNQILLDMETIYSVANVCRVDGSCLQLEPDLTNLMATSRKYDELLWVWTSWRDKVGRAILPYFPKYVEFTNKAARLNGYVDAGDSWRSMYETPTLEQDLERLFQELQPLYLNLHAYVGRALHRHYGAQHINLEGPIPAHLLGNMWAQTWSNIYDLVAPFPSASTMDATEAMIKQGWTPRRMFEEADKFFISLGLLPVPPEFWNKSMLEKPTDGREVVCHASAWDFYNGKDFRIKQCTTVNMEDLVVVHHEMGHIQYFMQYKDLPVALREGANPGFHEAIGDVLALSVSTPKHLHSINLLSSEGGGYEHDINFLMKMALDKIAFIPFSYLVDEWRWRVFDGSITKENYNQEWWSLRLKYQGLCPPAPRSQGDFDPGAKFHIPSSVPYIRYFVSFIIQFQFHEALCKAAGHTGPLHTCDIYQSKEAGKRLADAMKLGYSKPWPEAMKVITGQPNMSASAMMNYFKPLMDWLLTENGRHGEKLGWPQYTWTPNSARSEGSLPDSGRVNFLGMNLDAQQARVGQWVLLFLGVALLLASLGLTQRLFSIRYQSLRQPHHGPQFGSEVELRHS
Experiment: ACE inhibitory assay (Hip-His-Leu)
Assay type: biochemical
Settings: IC50 defined as absolute quantity of peptide to inhibit 50% of 1.0 U ACE; pre-incubated 37 °C 5 min; Hip-His-Leu 12.5 mM, 0.1 M sodium borate, 400 mM NaCl, pH 8.3, 37 °C, 1 h; hippuric acid absorbance at 228 nm; read-out: IC50 Value, ACE inhibitory activity of synthetic peptides
Source text: ACE from rabbit lung was purchased from Sigma Chemical Co. (St. Louis, MO, USA). Hyppuryl-L-histidyl-L-leucine (Hip-His-Leu), thermolysin (EC 3.4.24.27) from Bacillus thermoproteolyticus, pepsin (EC 3.4.23.1) from porcine stomach, trypsin (EC 3.4.21.4) from bovine pancreas and chymotrypsin (EC 3.4.21.1) from bovine pancreas were purchased from Wako Pure Chemical (Osaka, Japan). Synthetic peptides (purity: 99.4%–99.8%) were purchased from Medical Biological Laboratories Co. (Nagoya, Japan). All other reagents were purchased from Wako Pure Chemical Industries (Osaka, Japan).
ACE inhibitory assay was carried out according to the method of Cheng and Cushman with some modifications. Fifteen microliters of sample solution (5.0 mg/mL) were added to 30 μL of ACE (0.2 units/mL), and the mixture was pre-incubated at 37 °C for 5 min. Thirty microliters of Hip-His-Leu solution (12.5 mM in 0.1 M sodium borate buffer containing 400 mM NaCl at pH 8.3) were added to the mixture. After incubation at 37 °C for 1 h, the reaction was stopped by adding 75 μL of 1.0 M HCl. The released hippuric acid was extracted with 450 μL of ethyl acetate. Four hundred microliters of the upper layer were evaporated, and then the hippuric acid was dissolved in 1.5 mL of distilled water. The absorbance at 228 nm of the solution was measured by a spectrophotometer. The inhibition was calculated from the equation [1 − (As − Asb)/(Ac − Acb)] × 100, where Ac is the absorbance of the buffer, Acb is the absorbance when the stop solution was added to the buffer before the reaction, As is the absorbance of the sample, and Asb is the absorbance when the stop solution was added to the sample before the reaction. In this study, we defined the IC50 as an absolute quantity of peptide to inhibit 50% of 1.0 U ACE.

CC(C)C[C@H](N)C(=O)N[C@@H](CC(=O)O)C(=O)N[C@@H](Cc1ccc(O)cc1)C(=O)O [LDY] (H-Leu-Asp-Tyr-OH) and FEQDWAS [FEQDWAS] cannot be ordered by IC50: 6100 nM for the first, over 2800 nM for the second.

Going from CC(C)[C@H](N)C(=O)N[C@@H](Cc1ccc(O)cc1)C(=O)N[C@@H](CCCNC(=N)N)C(=O)N[C@H](C(=O)O)[C@@H](C)O [VYRT] (H-VYRT-OH) to CC(C)C[C@H](N)C(=O)N[C@@H](CCCNC(=N)N)C(=O)N[C@@H](Cc1ccc(O)cc1)C(=O)O [LRY] (H-Leu-Arg-Tyr-OH), the IC50 falls from 140 nM to 44 nM (3.2-fold).
